The values that follow come from US9365619B2, “IgG-binding peptide and method for detecting and purifying IgG using same” (Otsuka Chemical Co., Ltd., priority 2011, dated 2016).

Bridge positions count the residues as written; N and C are the ends. Peptide text beside a SMILES is read from it.

The target of the assay is human IgG. The assay is described as follows: Surface plasmon resonance (SPR) analysis of synthetic peptide binding to human IgG. Conditions: for Kd: SPR, synthetic peptide binding to human IgG, read-out: Kd; for affinity compared with the parent peptide, in words: compared with GFc-C35-3/15 (T7H, N8R). As for the experimental part: In order to narrow down the amino acid region to be studied, a peptide in which one amino acid was deleted from each end of GFc-C35 (GFc-C35-2/16) and a peptide in which two amino acids were deleted from each end of CFc-C35 (GFc-C35-3/15) were synthesized. Among these peptides, based on the GFc-C35-3/15 synthetic peptide, the effect of the introduction of amino acid mutations on affinity was evaluated. That is, the contribution of each amino acid substitution to affinity was evaluated by synthesizing peptides substituted with frequently or occasionally observed amino acids obtained from the phage libraries and subjecting the resulting synthetic peptides to binding analysis.
Based on the synthetic peptide C35A, peptides substituted with amino acids observed at high frequency in the aforementioned phage libraries were synthesized by introducing amino acid mutations, and in a similar manner to the above, their binding to human IgG was analyzed by surface plasmon resonance (SPR) analysis to evaluate the contribution of each amino acid substitution to affinity.
(In general: In SPR one partner is held on a chip, and binding of the other changes the refractive index at the surface.)

The Kd is the concentration at which binding is half-saturated. Take `CC(C)C[C@@H]1NC(=O)[C@H](CCC(=O)O)NC(=O)CNC(=O)[C@H](CCCNC(=N)N)NC(=O)[C@H](Cc2c[nH]cn2)NC(=O)[C@H](Cc2ccc(O)cc2)NC(=O)[C@H]([C@@H](C)O)NC(=O)[C@@H](NC(=O)[C@@H](N)CC(=O)O)CSSC[C@@H](C(=O)N[C@H](C(N)=O)[C@@H](C)O)NC(=O)[C@H](Cc2c[nH]c3ccccc23)NC(=O)[C@H](C(C)C)NC1=O` [GFc-C35-3/15 (T7H, N8R, N10E), DCTYHRGELVWCT] (H-DCTYHRGELVWCT-NH2; disulfide 2-12): the Kd was 0.27 µM and the “affinity compared with the parent peptide, in words” value was “affinity-enhancing effect”.

For `CC(C)C[C@@H]1NC(=O)[C@H](CC(N)=O)NC(=O)CNC(=O)[C@H](CCCNC(=N)N)NC(=O)[C@H](Cc2c[nH]cn2)NC(=O)[C@H](Cc2ccc(O)cc2)NC(=O)[C@H](C)NC(=O)[C@@H](NC(=O)[C@@H](N)CC(=O)O)CSSC[C@@H](C(=O)N[C@H](C(N)=O)[C@@H](C)O)NC(=O)[C@H](Cc2c[nH]c3ccccc23)NC(=O)[C@H](C(C)C)NC1=O` [GFc-C35-3/15 (T7H, N8R, T5A), DCAYHRGNLVWCT] (H-DCAYHRGNLVWCT-NH2; disulfide 2-12), the Kd amounted to 0.25 µM and the “affinity compared with the parent peptide, in words” value is on record as “affinity-enhancing effect”.

For the compound `CC[C@H](C)[C@@H]1NC(=O)[C@H](CC(C)C)NC(=O)[C@H](CC(N)=O)NC(=O)CNC(=O)[C@H](CCCNC(=N)N)NC(=O)[C@H](Cc2c[nH]cn2)NC(=O)[C@H](Cc2ccc(O)cc2)NC(=O)[C@H]([C@@H](C)O)NC(=O)[C@@H](NC(=O)[C@@H](N)CC(=O)O)CSSC[C@@H](C(=O)N[C@H](C(N)=O)[C@@H](C)O)NC(=O)[C@H](Cc2c[nH]c3ccccc23)NC1=O` [GFc-C35-3/15 (T7H, N8R, V12I), DCTYHRGNLIWCT] (H-DCTYHRGNLIWCT-NH2; disulfide 2-12), the Kd was determined as 4.8 µM and the “affinity compared with the parent peptide, in words” value was “reduced affinity”.

In the case of `CC(C)C[C@@H]1NC(=O)[C@H](CC(N)=O)NC(=O)CNC(=O)[C@H](CCCNC(=N)N)NC(=O)[C@H](Cc2c[nH]cn2)NC(=O)[C@H](Cc2c[nH]c3ccccc23)NC(=O)[C@H]([C@@H](C)O)NC(=O)[C@@H](NC(=O)[C@@H](N)CC(=O)O)CSSC[C@@H](C(=O)N[C@H](C(N)=O)[C@@H](C)O)NC(=O)[C@H](Cc2c[nH]c3ccccc23)NC(=O)[C@H](C(C)C)NC1=O` [GFc-C35-3/15 (T7H, N8R, Y6W), DCTWHRGNLVWCT] (H-DCTWHRGNLVWCT-NH2; disulfide 2-12), the Kd was 2 µM and the “affinity compared with the parent peptide, in words” value is recorded as “reduced affinity”.

For `CC(C)C[C@@H]1NC(=O)[C@H](CC(N)=O)NC(=O)CNC(=O)[C@H](CC(N)=O)NC(=O)[C@H](CCCNC(=N)N)NC(=O)[C@H](Cc2ccc(O)cc2)NC(=O)[C@H]([C@@H](C)O)NC(=O)[C@@H](NC(=O)[C@@H](N)CC(=O)O)CSSC[C@@H](C(=O)N[C@H](C(N)=O)[C@@H](C)O)NC(=O)[C@H](Cc2c[nH]c3ccccc23)NC(=O)[C@H](C(C)C)NC1=O` [GFc-C35-3/15 (T7R), DCTYRNGNLVWCT] (H-DCTYRNGNLVWCT-NH2; disulfide 2-12), the Kd was 83 µM.

`CC(C)C[C@@H]1NC(=O)[C@H](CC(N)=O)NC(=O)CNC(=O)[C@H](CC(N)=O)NC(=O)[C@H](CO)NC(=O)[C@H](Cc2ccc(O)cc2)NC(=O)[C@H]([C@@H](C)O)NC(=O)[C@@H](NC(=O)[C@@H](N)CC(=O)O)CSSC[C@@H](C(=O)N[C@H](C(N)=O)[C@@H](C)O)NC(=O)[C@H](Cc2c[nH]c3ccccc23)NC(=O)[C@H](C(C)C)NC1=O` [GFc-C35-3/15 (T7S), DCTYSNGNLVWCT] (H-DCTYSNGNLVWCT-NH2; disulfide 2-12): the Kd was found to be 26 µM.
